Target: T1, thioredoxin reductase (TrxR) (Sus scrofa, UniProt Q9MYY8)
T1 construct: gene TXNRD1; TrxR purified from porcine brains
T1 sequence (Q9MYY8 1-499): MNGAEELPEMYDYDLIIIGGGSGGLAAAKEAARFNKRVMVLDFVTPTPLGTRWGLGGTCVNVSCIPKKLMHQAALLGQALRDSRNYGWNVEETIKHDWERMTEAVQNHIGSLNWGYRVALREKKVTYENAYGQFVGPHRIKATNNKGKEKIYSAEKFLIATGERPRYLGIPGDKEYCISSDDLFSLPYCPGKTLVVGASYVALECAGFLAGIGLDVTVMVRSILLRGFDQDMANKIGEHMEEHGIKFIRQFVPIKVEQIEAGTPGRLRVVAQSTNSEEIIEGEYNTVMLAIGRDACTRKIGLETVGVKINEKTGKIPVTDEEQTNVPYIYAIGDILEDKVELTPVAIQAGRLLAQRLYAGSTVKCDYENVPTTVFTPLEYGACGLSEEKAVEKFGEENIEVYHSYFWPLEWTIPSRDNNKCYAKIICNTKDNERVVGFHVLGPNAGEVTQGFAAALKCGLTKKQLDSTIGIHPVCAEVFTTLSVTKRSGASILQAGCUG
Experiment: DTNB reduction assay with purified NADPH-reduced TrxR; supported by BIAM labeling and TOF LC/MS of C-terminal tetrapeptide adduct
Format: biochemical

Molecule `C=C(C)C(=O)OC1CC(C)=CC2(OC)C=C(C)C(O2)C2OC(=O)C(=C)C12` (stereo not shown) [EM23] has an IC50 of 7.8 µM.

Source: article PMC4872749, “EM23, a natural sesquiterpene lactone, targets thioredoxin reductase to activate JNK and cell death pathways in human cervical cancer cells” (Oncotarget, 2016)
